US7235252B2, “Method of preparing organic peroxyacids” (priority 2002, dated 2007)

Experiments:
[1] = Peracetic acid formation rate and stability with N-acyl donors in parent solution (double titration); assay type: physicochemical; details: equimolar N-acyl donor dispersed in parent solution
From the text: The other conditions (temperature, humidity, generator composition) being the same, equimolar amounts of the three N-acyl donors were dispersed in the parent solution to determine the formation rate of peracetic acid in the solution and the stability with time of such a concentration. The method adopted for quantitative determination of organic peroxyacid in the presence of a large excess of hydrogen peroxide (in this and in the following tests) was a sequential double-titration, the first of which is a permanganometric test designed to titre and eliminate any hydrogen peroxide in excess, and this was immediately followed by an iodometric titration to determine the concentration of the remaining organic peroxide. The results are shown below, both as activation rate (see FIG. 1), and stability of the peracetic acid concentration (see FIG. 2) are concerned.

[2] = Preliminary assessment of acetyl donating compounds; assay type: physicochemical
From the text: Search work was initially directed towards finding out the best N-acyl and/or O-acyl activator of all those available and disclosed in the prior art referred to above. The features sought for in this initial search were: • a rapidly acting acylating agent (i.e. provided with an electrophilic carbonyl carbon) suitable for causing a perhydrolysis reaction due to electron-withdrawing effect on the carbonyl carbon and for providing a sufficiently high concentration of its respective peracid within short times (20–30 minutes) for the specified objects; • a good conservation under standard storage conditions (at temperatures ranging from 20° and 40° C.). • an ability to yield after activation an activated solution in which the organic peroxyacid concentration is as stable as possible. […]

[3] = system: bacterial spores (sporicidal activity); assay: Minimum effective concentration (CME) by sporicidal activity; assay type: cell-based; details: minimum peracetic acid concentration with sporicidal activity over contact time of 15 minutes
Procedure: In the search study carried out with an endoscope washing machine, the solution was used by operating 10 full daily cycles of high-level disinfection or, better, cold-chemical sterilization for a total of 120 cycles. The contact time set for the sterilization step was 30 minutes. As it will be noted, immediately after activation, the concentration increases at a fast-rate, overcomes the minimum effective concentration level (Minimum Effective Concentration Level ═CME) equal to 0.05% w/v just after 15–20 minutes and reaches a maximum value equal to 0.35% w/v after 24 hours. During the following days, concentration decreases slowly down to a minimum effective level below which the effectiveness set forth below is not provided any longer. This threshold level (CME) was fixed and defined by means of the minimum % concentration of peracetic acid at which a sporicidal activity is still detected over a contact time of 15 minutes.

| Structure (SMILES) | Stability of peracetic acid concentration with time (FIG. 2) [1] | Stability under standard storage conditions [2] | Minimum Effective Concentration Level (CME) [3] [% w/v] |
| --- | --- | --- | --- |
| CC(=O)N1C(=O)CCC1=O [N-acetylsuccinimide] | behavior similar to that of N-OSU | poor stability |  |
| CC(=O)OO [peracetic acid] |  |  | 0.05 |
| CC(=O)ON1C(=O)CCC1=O [N-acetoxysuccinimide] | poor stability with time | poor stability |  |
| CC(=O)N1CCCCCC1=O [N-acetylcaprolactam] | good stability |  |  |
